One data set has as its system TRPM8. Nature of the data set: Antisense knockdown of TRPM8, DRG immunoblots (TRPM8:GAPDH). The note with it: for TRPM8:GAPDH ratio in DRG: intrathecal oligonucleotide infusion. In kind it is in vivo, rat. The text has this: Antisense and mis-sense oligonucleotides were 22-mers with phosphorothioate bonds at the last two positions at 5′ and 3′ ends (MWG Biotech, Ebersberg, Germany). Antisense extended from base −10 to base +12 relative to the start of the open reading frame for the rat TRPM8 gene: 5′ C*T*CGAAGGACATCTTGCCGT*G*G 3′, where * represents phosphorothioate linkages. Mis-sense was designed with 4 inversions of C/G or A/T as appropriate at residues 3, 11, 14 and 22, preserving overall G/C content. BLAST searches of both oligonucleotides indicated no significant complementarity to any known gene sequence. 14-day or 7-day osmotic minipumps (for CCI experiments or naïve electrophysiology experiments respectively—Alzet Minipump, models 2002, 2001; Charles River, UK) containing oligonucleotides (1 μg/μl in sterile saline) were connected to canulae inserted under the dura of the spinal cord to level L5/6 and produced a predicted infusion rate of 0.5 μl/h. CCI surgery was performed at the same time as minipump implantation. Sensory tests were carried out to assess the time-course of behavioural sensitisation in animals which had also undergone a CCI injury. Icilin was applied topically rather than intrathecally so as to prevent any interference with the infusion canula. […]
Ipsilateral or contralateral L4-L6 dorsal root ganglia (DRG) were taken from CCI animals (n=6), and from […]. […] Blots were incubated with rabbit polyclonal antibodies to TRPM8 (either an antibody raised against TRPM8 residues 278-292 and 1090-1104 (human); 1:500; Abcam Ltd., Cambridge, UK or occasionally an antibody raised against TRPM8 residues 656-680 (rat); 1:100; Phoenix Peptides, Belmont, Calif., USA), a rabbit polyclonal antibody to TRPV1 (1:250, Chemicon International Ltd, Harrow, UK) or a mouse monoclonal antibody to glyceraldehyde-3-phosphate dehydrogenase (GAPDH, 1:750; Chemicon) and immunoreactive bands were detected by […] secondary antibody and enhanced chemiluminescence. Quantitative densitometry analysis of protein bands was performed using the ScanAnalysis (Elsevier) programme.
A general note: A western blot detects proteins with antibodies after separation by electrophoresis.

Data set [1] concerns rats with chronic constriction injury (CCI). Nature of the data set: Sensitivity to noxious cold (4° C. water) in CCI animals with oligonucleotide infusion. In kind it is in vivo, rat. The note with it: at peak, control CCI 8.1±0.5 s. Here is the method:
Thermal sensitivity was assessed by measuring paw withdrawal latency (PWL, s) in response to a noxious thermal stimulus (Hargreaves' thermal stimulator, Linton Instrumentation, Diss, UK) directed to the hindpaw mid-plantar glabrous surface. Mechanical sensitivity was recorded as the paw withdrawal threshold (PWT, mN/mm^2) to calibrated von Frey filaments (Stoelting, Ill., US), as previously described^[39]. Sensitivity to noxious cold was assessed by placing animals in a waterbath with an aluminium floor containing 1 cm deep 4° C. water and counting the time the paw was held suspended over a 20 s period.
Antisense and mis-sense oligonucleotides were 22-mers with phosphorothioate bonds at the last two positions at 5′ and 3′ ends (MWG Biotech, Ebersberg, Germany). Antisense extended from base −10 to base +12 relative to the start of the open reading frame for the rat TRPM8 gene: 5′ C*T*CGAAGGACATCTTGCCGT*G*G 3′, where * represents phosphorothioate linkages. Mis-sense was designed with 4 inversions of C/G or A/T as appropriate at residues 3, 11, 14 and 22, preserving overall G/C content. BLAST searches of both oligonucleotides indicated no significant complementarity to any known gene sequence. […]

Here are results for one substance from patent publication US20100137344A1, “INDUCTION OF ANALGESIA IN NEUROPATHIC PAIN” (University Court of the University of Edinburgh, priority 2006, published 2010).

Regarding “5′ C*T*CGAAGGACATCTTGCCGT*G*G 3′ (antisense CTCGAAGGACATCTTGCCGTGG; linkages s2 o17 s2 (s phosphorothioate, o phosphodiester), sugars by position and methylation of C not given here) [TRPM8 antisense, 22-mer with phosphorothioate bonds, base −10 to +12 of rat TRPM8 open reading frame]”, the results for the “TRPM8:GAPDH ratio in DRG” value in the data set with TRPM8 (contralateral to CCI) and in the data set with TRPM8 (ipsilateral to CCI) were 14.9±2.1% and 19.8±2.2%, respectively. In the data set on TRPM8 (naïve rats, intrathecal delivery over 5 days), the “knockdown of the 128 kDa TRPM8 band in DRG” value is “almost complete knockdown”. Further, the “elevation of the paw ipsilateral to nerve injury out of 4° C. water” value in data set [1] was 7.6 ± 0.6 s.
